Numbered stars: 1 amine (or outer) side, 2 acyl side, 3 side chain; on linkers, the order of the positions; unused ones are H or OH. Bridge positions count the residues as written; N and C are the ends. Square brackets hold non-standard residues; d marks the D form. Peptide text beside a SMILES is read from it. Trp(βS-Me,7-OMe) = COc1cccc2c([C@H](C)[C@H](N)C(=O)O)c[nH]c12; Ala(1-bicyclo(1.1.1)pentyl) = N[C@@H](CC12CC(C1)C2)C(=O)O; Phe(3-CH2NH2) = O=C([C@H](Cc1cccc(CN[*:3])c1)N[*:1])[*:2]; Phe(4-CH2COOH) = N[C@@H](Cc1ccc(CC(=O)O)cc1)C(=O)O; Trp(4-Cl) = N[C@@H](Cc1c[nH]c2cccc(Cl)c12)C(=O)O; Trp(7-Cl) = N[C@@H](Cc1c[nH]c2c(Cl)cccc12)C(=O)O; Phe(4-CONH2) = NC(=O)c1ccc(C[C@H](N)C(=O)O)cc1; Phe(4-COOH) = N[C@@H](Cc1ccc(C(=O)O)cc1)C(=O)O; Trp(7-aza) = N[C@@H](Cc1c[nH]c2ncccc12)C(=O)O; Phe(4-CH2NH2) = NCc1ccc(C[C@H](N)C(=O)O)cc1; Trp(1-Me) = Cn1cc(C[C@H](N)C(=O)O)c2ccccc21; dPro(cis-4-NH2) = N[C@H]1CN[C@@H](C(=O)O)C1; αMeW = C[C@](N)(Cc1c[nH]c2ccccc12)C(=O)O; 1Nal = N[C@@H](Cc1cccc2ccccc12)C(=O)O; 2Nal = N[C@@H](Cc1ccc2ccccc2c1)C(=O)O; N(CH2CH2COOH)Gly = O=C(O)CCNCC(=O)O; Pip(4-aza) = O=C(O)[C@@H]1CNCCN1; 4Pal = N[C@@H](Cc1ccncc1)C(=O)O; NMeE = CN[C@@H](CCC(=O)O)C(=O)O; NMeN = CN[C@@H](CC(N)=O)C(=O)O; Pip = O=C(O)[C@@H]1CCCCN1; αMeS = C[C@](N)(CO)C(=O)O; NMeA = CN[C@@H](C)C(=O)O; Nle = CCCC[C@H](N)C(=O)O; Sar = CNCC(=O)O
target: T1, TNFα-induced NF-κB signal transduction pathway (TNFR1 signaling) in THP-1 cells (Homo sapiens, UniProt P19438); assay: THP-1 Lucia NF-κB reporter cell assay, inhibition of TNFα-induced NF-κB signaling; assay type: cell-based; conditions: THP-1 NF-κB Lucia reporter cells, 10 ng/mL TNFα, 16-18 h, secreted luciferase; read-out: THP-1 IC50
T1 sequence (P19438 30-455): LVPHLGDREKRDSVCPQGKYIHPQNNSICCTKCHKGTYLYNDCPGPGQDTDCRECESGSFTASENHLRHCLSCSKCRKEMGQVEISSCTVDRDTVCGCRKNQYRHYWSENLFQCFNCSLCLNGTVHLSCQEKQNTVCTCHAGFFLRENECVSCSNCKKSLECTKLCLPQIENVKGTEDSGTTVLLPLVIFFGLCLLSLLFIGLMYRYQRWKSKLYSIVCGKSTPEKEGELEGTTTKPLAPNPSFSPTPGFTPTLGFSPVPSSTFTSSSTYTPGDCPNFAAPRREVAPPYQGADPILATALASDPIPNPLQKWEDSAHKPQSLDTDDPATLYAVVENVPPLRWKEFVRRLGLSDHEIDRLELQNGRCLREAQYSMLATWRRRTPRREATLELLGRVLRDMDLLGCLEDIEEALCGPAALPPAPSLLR
Procedure, shortened: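 Read-out: secreted Lucia luciferase luminescence (QUANTI-Luc) from supernatant after 16-18 h, 37 °C, 10 ng/mL rhTNFα. Peptide pretreatment 1 h at 37 °C; 20,000 cells/well, selection antibiotics omitted. IC50 via 4-parameter logistic model against min/max controls.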

| Compound | IC50 [nM] |
| --- | --- |
| CCCC[C@@H]1NC(=O)CSC[C@@H](C(N)=O)NC(=O)[C@H]([C@@H](C)c2c[nH]c3c(OC)cccc23)NC(=O)CN(C)C(=O)[C@H](Cc2ccc(O)cc2)NC(=O)[C@H](Cc2ccc(C(N)=O)cc2)NC(=O)[C@](C)(CO)NC(=O)[C@H](Cc2c[nH]c3c(Cl)cccc23)NC(=O)[C@H](Cc2ccncc2)NC(=O)[C@H](CC(N)=O)NC(=O)[C@H]2C[C@@H](N)CN2C(=O)[C@H](Cc2c[nH]c3ncccc23)NC(=O)[C@@H]2CNCCN2C(=O)[C@H](Cc2ccncc2)NC1=O [SEQ ID NO. 219] ({CH2CO}-[Nle][4Pal][Pip(4-aza)][Trp(7-aza)][dPro(cis-4-NH2)]N[4Pal][Trp(7-Cl)][αMeS][Phe(4-CONH2)]Y[Sar][Trp(βS-Me,7-OMe)]C-NH2; thioether N-14) | 1.6 |
| CCCC[C@@H]1NC(=O)CSC[C@@H](C(N)=O)NC(=O)[C@H]([C@@H](C)c2c[nH]c3c(OC)cccc23)NC(=O)CN(C)C(=O)[C@H](Cc2ccc(O)cc2)NC(=O)[C@H](Cc2ccc(C(=O)O)cc2)NC(=O)[C@](C)(CO)NC(=O)[C@H](Cc2c[nH]c3c(Cl)cccc23)NC(=O)[C@H](Cc2ccncc2)NC(=O)[C@H](CC(N)=O)NC(=O)CN(CCC(=O)O)C(=O)[C@H](Cc2c[nH]c3ncccc23)NC(=O)[C@@H]2CCCCN2C(=O)[C@H](Cc2ccncc2)NC1=O [SEQ ID NO. 220] ({CH2CO}-[Nle][4Pal][Pip][Trp(7-aza)][N(CH2CH2COOH)Gly]N[4Pal][Trp(7-Cl)][αMeS][Phe(4-COOH)]Y[Sar][Trp(βS-Me,7-OMe)]C-NH2; thioether N-14) | 2.9 |
| CN1CC(=O)N[C@@H](Cc2c[nH]c3cccc(Cl)c23)C(=O)N[C@H](C(N)=O)CSCC(=O)N[C@@H](CC23CC(C2)C3)C(=O)N[C@@H](Cc2cccc(CN)c2)C(=O)N[C@@H](CO)C(=O)N[C@@H](Cc2c[nH]c3c(Cl)cccc23)C(=O)N2CCC[C@@H]2C(=O)N(C)[C@@H](CC(N)=O)C(=O)N[C@@H](Cc2ccc(C(=O)O)cc2)C(=O)N[C@@H](Cc2c[nH]c3c(Cl)cccc23)C(=O)N[C@@](C)(CO)C(=O)N[C@@H](Cc2ccc(C(=O)O)cc2)C(=O)N[C@@H](Cc2cccc(CN)c2)C1=O [SEQ ID NO. 222] ({CH2CO}-[Ala(1-bicyclo(1.1.1)pentyl)][Phe(3-CH2NH2)]S[Trp(7-Cl)][dP][NMeN][Phe(4-COOH)][Trp(7-Cl)][αMeS][Phe(4-COOH)][Phe(3-CH2NH2)][Sar][Trp(4-Cl)]C-NH2; thioether N-14) | 5.7 |
| CCCC[C@@H]1NC(=O)CSC[C@@H](C(N)=O)NC(=O)[C@H](Cc2cn(C)c3ccccc23)NC(=O)CN(C)C(=O)[C@H](Cc2ccc(O)cc2)NC(=O)[C@H](Cc2ccc(C(=O)O)cc2)NC(=O)[C@](C)(CO)NC(=O)[C@H](Cc2c[nH]c3c(Cl)cccc23)NC(=O)[C@H](Cc2ccncc2)NC(=O)[C@H](CC(N)=O)NC(=O)[C@H](CCC(=O)O)N(C)C(=O)[C@H](Cc2c[nH]c3ncccc23)NC(=O)[C@H](CO)NC(=O)[C@H](Cc2ccncc2)NC1=O [SEQ ID NO. 223] ({CH2CO}-[Nle][4Pal]S[Trp(7-aza)][NMeE]N[4Pal][Trp(7-Cl)][αMeS][Phe(4-COOH)]Y[Sar][Trp(1-Me)]C-NH2; thioether N-14) | 2.9 |
| CCCC[C@@H]1NC(=O)CSC[C@@H](C(N)=O)NC(=O)[C@](C)(Cc2c[nH]c3ccccc23)NC(=O)CN(C)C(=O)[C@H](Cc2ccc(O)cc2)NC(=O)[C@H](Cc2ccc(CC(=O)O)cc2)NC(=O)[C@](C)(CO)NC(=O)[C@H](Cc2c[nH]c3c(Cl)cccc23)NC(=O)[C@H](Cc2ccncc2)NC(=O)[C@H](CC(N)=O)NC(=O)[C@H](CCC(=O)O)N(C)C(=O)[C@H](Cc2c[nH]c3ncccc23)NC(=O)[C@H](CO)NC(=O)[C@H](Cc2ccc(CN)cc2)NC1=O [SEQ ID NO. 224] ({CH2CO}-[Nle][Phe(4-CH2NH2)]S[Trp(7-aza)][NMeE]N[4Pal][Trp(7-Cl)][αMeS][Phe(4-CH2COOH)]Y[Sar][αMeW]C-NH2; thioether N-14) | 4.8 |
| C[C@H]1C(=O)N[C@@H](CC(N)=O)C(=O)N[C@@H](Cc2ccncc2)C(=O)N[C@@H](Cc2ccc3ccccc3c2)C(=O)N[C@@](C)(CO)C(=O)N[C@@H](Cc2ccc(C(=O)O)cc2)C(=O)N[C@@H](Cc2ccc(O)cc2)C(=O)N(C)CC(=O)N[C@@H](Cc2c[nH]c3ccccc23)C(=O)N[C@H](C(N)=O)CSCC(=O)N[C@@H](CCCCN)C(=O)N[C@@H](Cc2ccncc2)C(=O)N[C@@H](CO)C(=O)N[C@@H](Cc2cccc3ccccc23)C(=O)N1C [SEQ ID NO. 227] ({CH2CO}-K[4Pal]S[1Nal][NMeA]N[4Pal][2Nal][αMeS][Phe(4-COOH)]Y[Sar]WC-NH2; thioether N-14) | 13.5 |
